In EP0635577B1, “Screen for inhibitors of melanin biosynthesis” (BASF AKTIENGESELLSCHAFT, priority 1993, dated 1995):
Read-outs that look alike come from different tables or passages of the source.

Tests used:
[1] = tested on: wild-type strain M. grisea
Cladosporium cucumerinum = assay: melanin biosynthesis inhibition screen, disk diffusion assay on solidified culture; assay type: cell-based; conditions: for Observation: inhibits, radius cleared: growth inhibition zone; for Observation: effect on growth and pigmentation in words
Method: Potato dextrose medium (PDM) for the screening test is prepared by melting
The mixture is autoclaved as 150 ml aliquots at 121°C for 25 minutes.
A chloramphenicol stock solution is prepared to contain 15 mg chloramphenicol per mL absolute ethanol and is stored at -20°C.
Conidia from Cladosporium cucumerinum, 10^7/mL in 0.03% Tween 20™, retain their viability for at least 12 weeks of storage in 1.8 ml cryovials at -85°C. Inoculum for running the screen are raised once every three months and stored without a cryoprotectant at the working concentration of 10^7 conidia/mL.
Fresh inoculum suspensions are prepared from conidial suspensions stored at -85°C. A cryovial is thawed by hand-heat, and 200 uL spread on the surface of PDA in 9 cm Petri dishes. Plates are placed in a resin box (to prevent fungal escape) and incubated at room temperature, 40 cm below laboratory fluorescent lights. Seven days later conidia are collected. Five mL of 0.03% Tween 20™ is added to each plate, and the conidia are released by rubbing the mycelium with a glass rod. The suspension is passed through a layer of sterile Miracloth™ and the concentration adjusted to 10^7 conidia/mL in 0.03% Tween 20™ using a haemocytometer. Aliquots of 1 mL are dispensed into cryovials and placed in a polystyrene holder to freeze slowly to -85°C.
For the test, 150 mL of PDM is cooled to 35°C, and 0.1 mL of chloramphenicol stock solution is added by gentle swirling. A vial of C. cucumerinum conidial suspension (10^7 conidia/ml in Tween 20™) thawed with hand-heat is mixed into the growth medium using gentle swirling. The mixture is poured immediately into a Biotray, and the agar is allowed to solidify.
Test compounds are applied to 0.63 cm (¼ inch) filter disks. Each test includes a positive control, 200 ng tricyclazole in 20% dimethyl sulphoxide (DMSO). The plate is incubated at room-temperature (∼23°C) 40 cm below laboratory fluorescent lights. The plate is read 40 hours later. […] The Biotrays are autoclaved before disposal.
The compounds are applied as 20 ul droplets from a 1 mg/ml stock solution.

[2] = Antifungal Panel, 20 ul droplets from a 1 mg/ml stock solution on filter disk, read 40 hours later
[3] = C. cucumerinum Antibiotic Panel, screen of Example 1

In the case of `Cc1cccc2sc3nncn3c12` [tricyclazole], the inhibition of penetration ([1]; 15 ng in 1.5% acetone, onion epidermal pieces, 25°C for 24 hours) is reported as 100% and the “penetration of freshly harvested onion epidermis by wild-type M. grisea” value ([1]; in the presence of the inhibitor, about 90 to 95% of germinating wild-type conidia penetrate without it) is reported as “no penetration”.
With `C[C@@H]([C@H](N)C(=O)N[C@H](C(=O)O)[C@H]1O[C@@H](n2ccc(=O)[nH]c2=O)[C@H](O)[C@@H]1O)[C@H](O)c1ccc(O)cn1` [Nikkomycin] the “Observation: inhibits, radius cleared” value (Cladosporium cucumerinum; [2]) was “inhibits, 38 mm radius cleared”.
Tetrahydro Spiramycin Base was tested, and the Observation (Cladosporium cucumerinum; [3]) was “no effect on growth or pigmentation”.
With Dermostatin the Observation (Cladosporium cucumerinum; [3]) was “no effect on growth or pigmentation”.
Sulfocidin was tested, and the “Observation: fungal thinning, radius” value (Cladosporium cucumerinum; [3]) was “fungal thinning, 5 mm radius”.
With `CC1CCC(=O)C=CC(=O)OC(C)CCC(=O)C=CC(=O)O1` (stereo not shown) [Pyrenophorin] the “Observation: inhibits, radius cleared” value (Cladosporium cucumerinum; [3]) was “inhibits, 12 mm radius cleared”.
With `Nc1ncnc2c1ccn2[C@@H]1O[C@H](CO)[C@@H](O)[C@H]1O` [Tubercidin] the “Observation: fungal thinning, radius” value (Cladosporium cucumerinum) was “fungal thinning, 10 mm radius”.
In the case of Ristocedin, the Observation (Cladosporium cucumerinum; [3]) is reported as “no effect on growth or pigmentation”.
With `Nc1nc[nH]n1` [Amino-triazole] the “Observation: inhibits, radius cleared” value (Cladosporium cucumerinum; [2]) was “inhibits, 13 mm radius cleared”.
